We go through two compounds from US11800867B2, “Methods of repelling biting arthropods, reducing pathogen spread and treating arthropod infestation” (priority 2016, dated 2023).

For data set [1] the following is noted: humans; compound found in bergamot and citrus essential oils; cited from earlier work.
Data set [2] concerns female Aedes aegypti mosquitoes. The experiment in a line: In vitro membrane feeder repellency assay, probing of treated collagen membranes (Example 2). It is filed as in vivo. The settings on record: 20% DEET in ethanol, 25 μL on collagen membrane; twenty minutes; average ± SE, n = 5. The source says: (§1) A laboratory trial was required to evaluate the repellency of 1% Nootkatone against female Aedes aegypti, Culex quinquefasciatus, and Anopheles quadrimaculatus mosquitoes using an in vitro method.
(§2) Female adult laboratory reared Aedes aegypti, Culex quinquefasciatus, and Anopheles quadrimaculatus mosquitoes (susceptible) were obtained from Benzon Research in Carlisle, Pa. 250 mosquitoes were used per replicate (5 replicates per test, per species). Adult mosquitoes were 3-8 days old.
(§3) Nootkatone was diluted in ethanol and acetone (note that Nootkatone diluted in acetone was not tested against An. quadrimaculatus). A positive control consisting of 20% DEET in ethanol was prepared using stock solutions. Negative controls consisted of no treatment, and ethanol-only treatment.
(§4) The treatments were applied directly to prepared collagen membranes by pipetting 25 μL of the appropriate substance onto a membrane and spreading it evenly with the tip of the pipette.
(§5) Exposure container. A 30.5 cm×30.5 cm×30.5 cm rigid plastic frame supported by four, 4 cm high legs, with a sleeved entry on one side and a sliding door on the bottom.
(§6) Membrane feeder. Five wells (3 cm in diameter×8 mm in depth) in line on a hollow plastic block (6 cm wide×22 cm long×3 cm deep), which fits through the sliding door in the bottom of the exposure container. Hoses attached to each side of the block circulate heated water that is pumped from a water bath. The sliding door in the bottom of the exposure container covers and uncovers the wells in the membrane feeder, allowing mosquitoes to access the wells.
(§7) Test set-up. The membrane feeder was connected to a heated water bath, and warm water passed through the feeder via a circulating pump so that the wells were warmed to 89-95° F. Seventy-two (72) mg of ATP (disodium salt) were added to 26 mL of warmed citrated bovine blood, which was poured into the wells until they were completely full.
(§8) The collagen membranes were placed on vacuum greased wax paper for treatment. They were then treated as described above and left for five minutes to dry. After they dried, the membranes were placed over each of the wells (using vacuum grease as an adhesive), completely covering the blood.
(§9) Exposure to mosquitoes. The mosquitoes were released into the exposure container just prior to exposure to the membranes. The exposure container was then placed on the membrane feeder and the sliding door opened, allowing the mosquitoes to access the wells. The number of mosquitoes probing each membrane was recorded every two minutes for twenty minutes.
(§10) The above procedures were repeated until five replicates were completed. A new batch of 250 female mosquitoes and fresh blood were used for each replicate, and the wells were cleaned in between replicates. The position of the treatments was rotated for each replicate, so that each treatment was tested on each of the five wells.
(§11) Percent repellency was calculated for each replicate using the total number of probes with the following formula:
(§12) [formula] • where C=the total number of probes on the untreated well • and T=the total number of probes on the treated well
(§13) Average percent repellency and standard error were then calculated across all five replicates. Shapiro-Wilks tests were conducted to determine the normality of the data, based on total number of probes per replicate. Depending on normality, student t-tests (with concurrent F-tests for variance) or Mann-Whitney tests were then used to determine significance between the treatments.

Data set [3] relates to female Anopheles quadrimaculatus mosquitoes. The description is as above. It counts as in vivo. The settings on record: 20% DEET in ethanol, 25 μL on collagen membrane; twenty minutes; average ± SE, n = 5.
Source text: as §1, §2, §3, §4, §5, §6, §7, §8, §9, §10, §11, §12, §13

Data set [4] concerns female Culex quinquefasciatus mosquitoes. The data set is described as above. It counts as in vivo. The settings on record: 20% DEET in ethanol, 25 μL on collagen membrane; twenty minutes; average ± SE, n = 5.
Source text: as §1, §2, §3, §4, §5, §6, §7, §8, §9, §10, §11, §12, §13

Turning to `COc1c2ccoc2cc2oc(=O)ccc12` [Bergapten, 5-methoxypsoralen], the Phototoxicity entry in data set [1] is “causes phototoxicity in humans”.
Consider `CCN(CC)C(=O)c1cccc(C)c1` [DEET, N,N-Diethyl-meta-toluamide, reference compound], for which the results for the Percent repellency in data set [2], in data set [3] and in data set [4] were 99.4 ± 0.6%, 100.0 ± 0.0% and 95.9 ± 4.1%, respectively.
